The values that follow come from patent publication US20060089387A1, “Stabilized pharmaceutical composition comprising antidiabetic agent” (priority 2004, published 2006).

Data set [1] in a line: pKa of free rosiglitazone and free pioglitazone. It counts as physicochemical.
Data set [2] can be described thus: Solubility (complete dissolution) in solvents. Particulars: in words. It is filed as physicochemical.

In data set [1], `CCc1ccc(CCOc2ccc(CC3SC(=O)NC3=O)cc2)nc1` (racemic) [free pioglitazone, [(±)5-[[2-(5-ethyl-2-pyridinyl)ethoxyl]phenyl]methyl]-thiazolidine-2,4-dione] yielded a pKa1 of 6.5 and a pKa2 of 6.1. Further, the water solubility result in data set [2] is reported as “poorly water-soluble”.
In data set [1], `CN(CCOc1ccc(CC2SC(=O)NC2=O)cc1)c1ccccn1` (racemic) [free rosiglitazone, (±)5-[4-[2-(N-methyl-N-(2-pyridyl)amino)ethoxy]benzyl]thiazolidine-2,4-dione] registered a pKa1 of 6.8 and a pKa2 of 6.1. Also, in data set [2], the water solubility entry is listed as “poorly water-soluble”.
